In the OPERA property sets (Mansouri et al. 2018) one finds logP data, which are given here for 122 molecules.

One may read the logP as the decadic logarithm of the partition coefficient of the neutral form, usually between octanol and water. Higher therefore signals a more lipophilic compound. Turning to `COc1ccc(-c2nc3ccccc3[nH]2)c(OC)c1`, the logP was 2.59. The value for `CSc1cccc(NC(C)=O)c1` was 2.14; that for `O=C(O)c1cc(=O)c2cc3c(cc2o1)CCCC3` was 3.4. The same measure for `NCC(CC(=O)O)c1ccc(Cl)cc1` (configuration not stated): -0.96; for `CC(=O)Nc1ccc2oc(C)c(C)c(=O)c2c1`: 1.79. The value for `Cn1nnnc1SCc1ccccc1` was 1.63.

`O=NN(CCCl)C(=O)Nc1ccc(Cl)cc1`: the logP is 3.16. The same measure for `CC(=O)Nc1ccc(C(C)=O)cc1`: 1.24.

For the molecule `CCOC(=O)CC(=O)C=Cc1cccc(C)c1`, the logP came to 2.8. `CNC(=S)Nc1ccccc1` registered a logP of 0.85. The same measure for `O=C(O)c1ccccc1-c1ccccc1C(=O)O`: 2.07; for `CC1(O)OC(=O)c2ccccc21` (configuration not stated): 0.81. The value for `CN(C(=O)CCSC#N)c1ccc(S(=O)(=O)N(C)C)cc1` was 0.84. The value for `S=c1cc[nH]cc1` was 0.2; that for `CCOC(=O)c1cncn1C(C)c1ccccc1` (configuration not stated) was 3.05. `Cc1c(N(C)C)c(=O)n(C)c(=O)n1C` came in with a logP of 0.99. The value for `CN(C)C(=S)NCc1ccccc1` was 1.59; that for `O=[N+]([O-])c1ccc(/C=C/c2cccc(CO)n2)o1` was 1.37. `CCCC1CC(C(=O)NC(C(C)O)C2OC(SC)C(O)C(O)C2O)N(CC)C1` (configuration not stated) had a logP of 1.02. The same measure for `CCOCCOC(=O)C(C#N)=C(CC)NCc1ccc([N+](=O)[O-])cc1`: 2.64; for `COCCN(N=Nc1[nH]cnc1C(N)=O)C(C)(C)C`: 1.14; for `O=NN(CCCl)C(=O)NC1(C(=O)O)CCCC1`: 2.01.

Turning to `NCC(=O)NCC(=O)NCC(=O)NCC(=O)NCC(=O)O`, the logP was -3.31. The value for `CCOC(=O)c1ccc(NC(=O)C(F)(F)F)cc1` was 2.25; that for `O=CC=Cc1ccco1` was 1.15; that for `CNc1cccc2ccccc12` was 2.88. In the case of `N[C@@H](CSC(c1ccccc1)(c1ccccc1)c1ccccc1)C(=O)O`, the logP came to 2.06.

Take `O=C1/C(=C2\Nc3ccccc3C2=O)Nc2ccccc21`: the logP came out at 3.72. Consider `COc1cccc(OC)n1`, for which the logP was found to be 2.3. The value for `Cc1ccc(Cc2c[nH]c(NCCCCc3ccc(Br)cc3C)nc2=O)cn1` was 3.61. The same measure for `CC(=O)N(CC(=O)Nc1ccccc1)c1ccccc1`: 2.01. The value for `O=C(O)c1ccc[nH]1` was 0.85; that for `CN(C(=O)CCC(N)=O)c1ccc(S(=O)(=O)N(C)C)cc1` was -0.56; that for `O=c1cc(-c2ccc(O)cc2)oc2ccccc12` was 3.2. In turn, `Nc1ccc(S(=O)(=O)[O-])c2ccccc12.[Na+]` yielded a logP of -2.34. The value for `Cc1[nH]c(=O)[nH]c(=O)c1N(CCF)CCCl` was 0.85; that for `CCC1(c2ccccc2)NC(=O)NC1=O` (configuration not stated) was 1.53. The same measure for `COc1cc(Cc2cnc(N)nc2N)cc(OC)c1N(C)C`: 1.51; for `CC(=O)Nc1ccc2c(=O)c(C)c(C)oc2c1[N+](=O)[O-]`: 1.61; for `CNC(=S)NC12CC3CC(CC(C3)C1)C2`: 2.67.

Turning to `CC(C)S(=O)(=O)n1c(N)nc2ccc(/C(=N/O)c3ccccc3)cc21`, the logP stood at 3.1.

`Cc1c(N(C)C)c(=O)[nH]c(=O)n1-c1ccccc1` returned a logP of 1.4. The value for `CC(=O)Nc1ccc(Oc2ccccc2)cc1` was 3.13. The value for `OCCOCCN1CCN(CCCN2c3ccccc3Sc3ccc(C(F)(F)F)cc32)CC1` was 4.49; that for `CN(C)/N=N/c1ccccc1C(=O)NCC#N` was 1.79; that for `c1ccc(CSc2nnc[nH]2)cc1` was 1.45. The value for `O=C(O)c1ccccc1-c1ccccc1` was 2.89; that for `COc1cc(C)c2c(c1OC)-c1ccc(SC)c(=O)cc1C(NC1OCC(O)C(O)C1O)CC2` (configuration not stated) was 1.4; that for `CCC1(C)CCC(=O)NC1=O` (configuration not stated) was 0.23. Molecule `CN(C)C(=S)Nc1ccccc1` came in with a logP of 1.04. The molecule `COc1cc(S(C)=O)ccc1-c1cn2ccncc2n1` (configuration not stated) gave a logP of 1.11. `OC(c1ccccc1)(c1ccccc1)c1ccccc1` had a logP of 3.68. The value for `CNC(=N[N+](=O)[O-])NCCSCc1nc[nH]c1C` was 0.18; that for `CCOC(CCC#N)OCC` was 0.75; that for `CCCC(=O)Nc1ccc(Cl)c(Cl)c1` was 3.77.

In turn, `Cc1cccc(C)c1NC(=O)c1ccc(CN2CCCCC2)cc1` came in with a logP of 3.86.

The molecule `COc1ncccn1` showed a logP of 0.23. `O=CC(CO)OC(C=O)n1cnc2c(O)ncnc21` (configuration not stated): the logP is -2.11. The same measure for `CCCC1CC(C(=O)NC(C(C)Cl)C2OC(SC)C(O)C(O)C2O)N(CC)C1` (configuration not stated): 2.51. The molecule `CC1(C)N=C(N)N=C(N)N1c1ccc(OCC(=O)N2CCOCC2)cc1` gave a logP of -1.18. The molecule `CC1(C)N=C(N)N=C(N)N1c1cccc([N+](=O)[O-])c1` gave a logP of 0.06. The value for `CCN(CC)Cc1ccc(C(=O)Nc2ccccc2)cc1` was 3.49. The same measure for `CC(=O)Nc1ccc2c(c1)S(=O)(=O)c1ccccc1C2=O`: 2.35; for `COc1cc(C=O)ccc1OCCOC(=O)c1cccc(Cl)c1`: 3.67; for `O=S(=O)(NS(=O)(=O)c1ccccc1)c1ccccc1`: 0.52.

`CC(C)OC(=O)c1ccccc1` yielded a logP of 3.18. The same measure for `CN/C(=N\C#N)NCCSCc1csc(N=C(N)N)n1`: 0.68. The same measure for `CCCCCCC1OC(=O)c2cc(N)ccc21` (configuration not stated): 3.65; for `O=C1NC(c2cccc3ccccc23)Nc2ccccc21` (configuration not stated): 2.96. The value for `N=c1ccn2c(n1)O[C@H]1[C@H](O)[C@@H](CO)O[C@H]12` was -2.37. `CC(C)CC(CC(C)C)OC(=O)c1ccc(NC(=O)N(C)C)cc1Cl`: the logP amounted to 5.15. The same measure for `c1cc2n(n1)CCN2`: -0.25.

In turn, `O=[N+]([O-])c1ccc(C(F)(F)F)cc1` gave a logP of 2.55. The same measure for `CC(=O)OC1COC(NC(=O)N(CCl)N=O)C(OC(C)=O)C1OC(C)=O` (configuration not stated): 1.13. The value for `COc1cc(C=NO)ccc1OCCOC(=O)c1cccc(Cl)c1` was 3.94; that for `CCC(=O)OCC(=O)C1(OC(=O)CC)C(C)CC2C3CC(F)C4=CC(=O)C(Cl)=CC4(C)C3(F)C(O)CC21C` (configuration not stated) was 4.22. The value for `CSC(=O)Nc1ccccc1` was 2.4; that for `Cc1c2ccncc2cc2c1[nH]c1ccccc12` was 4.06. `FC(F)(F)CN(CC(F)(F)F)c1ccccc1`: the logP was determined as 3.69.

`CCNCC(F)(F)F`: the logP was determined as 0.74. The value for `COC1OC(CO)C(O)C(NC(=O)N(C)N=O)C1O` (configuration not stated) was -0.82; that for `CC(C)Cn1c(=O)n(C)c(=O)c2[nH]cnc21` was 1.15; that for `COc1ccc(C(C)=O)c(N)c1` was 1.76. The same measure for `CC1(C)OCCO1`: 0.46; for `CC(=O)Nc1cccc(I)c1`: 2.64; for `c1ccc2c(c1)CNc1ccccc1C2`: 2.9.

For `COC(=O)c1cccc(NC(C)=O)c1`, the logP amounted to 1.46. The same measure for `CCC1OC(=O)C(C)C(OC2CC(C)(OC)C(O)C(C)O2)C(C)C(OC2OC(C)CC(N(C)C)C2O)C(C)(O)CC(C)C(=O)C(C)C(OC(C)=O)C1C` (configuration not stated): 3.32; for `CCOC(CP(=O)(OCC)OCC)OCC`: 0.69. The value for `CC(=O)OC1OC(C)C(OC(C)=O)C(OC(C)=O)C1NC(=O)N(CCCl)N=O` (configuration not stated) was 1.32; that for `O=C1CN=C(c2ccc[nH]2)c2cc(Cl)ccc2N1` was 2.59; that for `O=C(O)Cc1n[nH]oc1=O` was -1.66. The same measure for `CCOc1ccccc1NC(C)=O`: 1.49; for `COc1cc(C=NO)ccc1OCCOC(=O)c1ccccc1`: 2.94; for `CC(=O)Nc1ccccc1C(C)C`: 1.71. `CC(=O)OCCC(=O)N(C)c1ccc(S(=O)(=O)N(C)C)cc1` yielded a logP of 0.26. The value for `CC(=O)N(C)c1ccc(S(=O)(=O)N(C)C)cc1` was 0.23; that for `CCOCCOC(=O)C(C#N)=C(NCc1ccc(Cl)cc1)C(C)C` was 4.05; that for `CN(C(=O)CCO)c1ccc(S(=O)(=O)N(C)C)cc1` was -0.26. The same measure for `CC(C)=NO`: 0.12; for `CSc1ccc(C=NN=C(N)NO)cc1`: 0.32. The value for `CC(=O)n1ccnc1` was -0.34; that for `Cc1cccc(C)c1NC(=O)c1cccc(CN2CCOCC2)c1` was 2.14.

The molecule `CSc1ncnc2c1ccn2C1OC(CO)C(O)C1O` (configuration not stated) returned a logP of 0.09. As for `CC(=O)OC1CCCC(NC(=O)N(CCF)N=O)C1` (configuration not stated), the logP stood at 1.33. The same measure for `COc1nnccc1N(C)C`: 0.9; for `CC(=O)OCC1CCC(NC(=O)N(CCCl)N=O)CC1` (configuration not stated): 2.24; for `O=C(CN(C(=O)CCl)c1ccccc1)Nc1ccccc1`: 2.32. In the case of `CC(=O)Nc1ccc(S(C)(=O)=O)cc1`, the logP turned out to be 0.58.

As for `CN(C)N=Nc1cn(C2OC(CO)C(O)C2O)c(=O)[nH]c1=O` (configuration not stated), the logP was -1.82. As to `CC(C)C(=O)Nc1ccc(Cl)c(Cl)c1`, the logP was found to be 3.72. In turn, `CCN(CC)Cc1ccc(C(=O)Nc2c(C)cccc2C)cc1` registered a logP of 3.49. The value for `CCC1OC(=O)C(C)C(OC2CC(C)(OC)C(O)C(C)O2)C(C)C(OC2OC(C)C(O)C(N(C)C)C2O)C(C)(O)CC(C)C(=O)C(C)C(O)C1(C)O` (configuration not stated) was 1.44. The same measure for `CC(=O)Nc1ccccc1NC(C)=O`: -0.03. With `CCOC(=O)CC(=O)C=Cc1ccc(C)cc1`, the logP came out at 2.63. In the case of `CC(=O)Nc1ccc(C#N)cc1`, the logP is 1.37. Consider `C[n+]1c2cc(N)ccc2cc2ccc(N)cc21.[Cl-]`, for which the logP is -1.78. Molecule `O=C(C=Cc1ccc2c(c1)OCO2)N1CCCCC1` showed a logP of 2.82. The value for `C=CCn1c(C)c(N(C)C)c(=O)n(-c2ccccc2)c1=O` was 1.44; that for `COC(=O)c1ccccc1NC(C)=O` was 1.65. `CCCCCCCCCCCCN.Cl` yielded a logP of 1.85. The same measure for `COc1ccc(-c2nc3ncccc3[nH]2)c(OC)c1`: 2.57.
